Laboratory results reported in patent US9924714B2, “Impregnatable matrix of plant, animal or synthetic origin or mixtures of same, containing a uniformly distributed antimicrobial compound, method for impregnating said matrix with a compound, and use thereof in the production of antimicrobial elements” (COMPAÑIA MINERA SAN GERONIMO, priority 2013, dated 2018).

Experiments:
Format in all cases: cell-based
[1] = tested on: Enterococcus faecalis ATCC29212; experiment: Sensidisc and thin cloth growth inhibition test (Example 3)
Method: (§1) In this example, the antimicrobial activity of the invention was determined by testing on sensidiscs. On order to do this, they were prepared 5 mm filter paper discs, embedded with various concentrations of compound Cu4SO4(OH)6 (Alkaline Copper Sulfate) of the study dissolved in DMSO (0 μg, 200 μg, 400 μg, 600 μg, 800 μg). In addition, pieces of cloth of about 2×2 cm were prepared and embedded with the new product. Paper discs and fabric were deposited on a background lawn, which was performed as follows:
(§2) From a bacterial culture of 16 hours, with the strain of interest, it was performed a 1/30 dilution of the culture with fresh medium and incubated under stirring at 37° C. until reaching the exponential growth phase (D0600 nm 0.4-0.5). It was taken an aliquot of 100 μL of the culture in exponential phase, and deposited in 4 mL of Mueller-Hinton soft agar at 0.8% (previously melted and stabilized at 50° C.). The mixture was deposited on a Petri dish with 20 mL of Mueller-Hinton agar base. Once the agar was gelled, each of the discs with different amounts of the test compound were deposited on the background lawn, and incubated at 37° C. during 48 hours.
(§3) Experiments were performed in triplicate in independently, using as negative control discs with the solvent DMSO alone and cloth without the product of study. As positive control were used commercial discs used with 30 μg of antibiotic Kanamycin (Km).

[2] = tested on: Klebsiella pneumoniae ATCC4352; experiment: as above
Method: as §1, §2, §3

[3] = tested on: Pseudomonas aeruginosa PAOI; experiment: as above
Method: as §1, §2, §3

[4] = tested on: Staphylococcus aureus ATCC25923; experiment: as above
Method: as §1, §2, §3

[5] = tested on: Streptococcus pneumonia ATCC14325; experiment: as above
Method: as §1, §2, §3

[6] = tested on: Streptococcus pyogenes ATCC2367; experiment: as above
Method: as §1, §2, §3

[7] = tested on: Acinetobacter baumannii UDP456; experiment: as above; design: unit not given here
Method: as §1, §2, §3

[8] = tested on: Citrobacter freundii ISP1949/99; experiment: as above; design: unit not given here
Method: as §1, §2, §3

[9] = tested on: Enterobacter aerogenes ATCC13048; experiment: as above; design: unit not given here
Method: as §1, §2, §3

[10] = tested on: Enterococcus faecium ISP133/04; experiment: as above; design: unit not given here
Method: as §1, §2, §3

[11] = tested on: Escherichia coli ATCC25922; experiment: as above; design: unit not given here
Method: as §1, §2, §3

[12] = tested on: Staphylococcus epidermidis; experiment: as above; design: unit not given here
Method: as §1, §2, §3

[13] = tested on: all bacterial strains tested; experiment: Antibacterial activity of alkaline copper sulfate, summary (Example 3); settings: summary in words of Table 5
Method: as §1, §2
Experiments were performed in triplicate in independently, using as negative control discs with the solvent DMSO alone and cloth without the product of study. […]

**Q.** With `O=S(=O)([O-])[O-].[Cu+2].[Cu+2].[Cu+2].[Cu+2].[OH-].[OH-].[OH-].[OH-].[OH-].[OH-]` [Alkaline Copper Sulphate, Alkaline Copper Sulfate] as the compound, how does the Growth inhibition zone ([1]; 200 μg on 5 mm disc) read?
**A.** The Growth inhibition zone was 6.0 ± 1.0 mm.

**Q.** What about the Growth inhibition zone ([1]; 400 μg on 5 mm disc) of the same compound?
**A.** The Growth inhibition zone was 6.0 ± 1.0 mm.

**Q.** And the Growth inhibition zone ([1]; 600 μg on 5 mm disc)?
**A.** Its Growth inhibition zone is 6.0 ± 1.0 mm.

**Q.** What about the Growth inhibition zone ([1]; 800 μg on 5 mm disc) of the same compound?
**A.** The Growth inhibition zone was 6.0 ± 1.0 mm.

**Q.** And the Growth inhibition zone ([2]; 200 μg on 5 mm disc)?
**A.** The Growth inhibition zone was 7.3 ± 0.6 mm.

**Q.** What about the Growth inhibition zone ([2]; 400 μg on 5 mm disc) of the same compound?
**A.** The Growth inhibition zone was 8.7 ± 0.6 mm.

**Q.** And the Growth inhibition zone ([2]; 600 μg on 5 mm disc)?
**A.** The Growth inhibition zone was 9.7 ± 0.6 mm.

**Q.** What about the Growth inhibition zone ([2]; 800 μg on 5 mm disc) of the same compound?
**A.** The Growth inhibition zone was 10.0 mm.

**Q.** And the Growth inhibition zone ([3]; 200 μg on 5 mm disc)?
**A.** Its Growth inhibition zone is 6.3 ± 1.5 mm.

**Q.** What about the Growth inhibition zone ([3]; 400 μg on 5 mm disc) of the same compound?
**A.** The Growth inhibition zone was 6.7 ± 1.2 mm.

**Q.** What about the Growth inhibition zone ([3]; 600 μg on 5 mm disc) of the same compound?
**A.** Its Growth inhibition zone is 8.3 ± 0.6 mm.

**Q.** What about the Growth inhibition zone ([3]; 800 μg on 5 mm disc) of the same compound?
**A.** The Growth inhibition zone was 8.3 ± 1.7 mm.

**Q.** And the Growth inhibition zone ([4]; 200 μg on 5 mm disc)?
**A.** The Growth inhibition zone was 6.0 ± 1.0 mm.

**Q.** And the Growth inhibition zone ([4]; 400 μg on 5 mm disc)?
**A.** The Growth inhibition zone was 10.3 ± 0.6 mm.

**Q.** And the Growth inhibition zone ([4]; 600 μg on 5 mm disc)?
**A.** The Growth inhibition zone was 11.7 ± 0.6 mm.

**Q.** And the Growth inhibition zone ([4]; 800 μg on 5 mm disc)?
**A.** Its Growth inhibition zone is 14.0 ± 1.0 mm.

**Q.** What about the Growth inhibition zone ([5]; 200 μg on 5 mm disc) of the same compound?
**A.** Its Growth inhibition zone is 5.0 ± 1.0 mm.

**Q.** What about the Growth inhibition zone ([5]; 400 μg on 5 mm disc) of the same compound?
**A.** The Growth inhibition zone was 8.0 ± 0.7 mm.

**Q.** And the Growth inhibition zone ([5]; 600 μg on 5 mm disc)?
**A.** The Growth inhibition zone was 9.0 ± 1.0 mm.

**Q.** What about the Growth inhibition zone ([5]; 800 μg on 5 mm disc) of the same compound?
**A.** The Growth inhibition zone was 11.0 ± 1.2 mm.

**Q.** What about the Growth inhibition zone ([6]; 200 μg on 5 mm disc) of the same compound?
**A.** The Growth inhibition zone was 5.0 ± 1.0 mm.

**Q.** And the Growth inhibition zone ([6]; 400 μg on 5 mm disc)?
**A.** The Growth inhibition zone was 6.0 ± 1.0 mm.

**Q.** What about the Growth inhibition zone ([6]; 600 μg on 5 mm disc) of the same compound?
**A.** The Growth inhibition zone was 7.0 ± 1.2 mm.

**Q.** And the Growth inhibition zone ([6]; 800 μg on 5 mm disc)?
**A.** Its Growth inhibition zone is 8.0 ± 1.4 mm.

**Q.** What about the Growth inhibition zone ([7]; 200 μg on 5 mm disc) of the same compound?
**A.** The Growth inhibition zone was 11.7 ± 0.6.

**Q.** And the Growth inhibition zone ([7]; 400 μg on 5 mm disc)?
**A.** The Growth inhibition zone was 15.7 ± 0.6.

**Q.** What about the Growth inhibition zone ([7]; 600 μg on 5 mm disc) of the same compound?
**A.** The Growth inhibition zone was 17.0 ± 1.0.

**Q.** And the Growth inhibition zone ([7]; 800 μg on 5 mm disc)?
**A.** The Growth inhibition zone was 19.7 ± 0.6.

**Q.** What about the Growth inhibition zone ([8]; 200 μg on 5 mm disc) of the same compound?
**A.** The Growth inhibition zone was 8.0 ± 1.0.

**Q.** And the Growth inhibition zone ([8]; 400 μg on 5 mm disc)?
**A.** Its Growth inhibition zone is 10.7 ± 1.5.

**Q.** And the Growth inhibition zone ([8]; 600 μg on 5 mm disc)?
**A.** The Growth inhibition zone was 11.3 ± 0.6.

**Q.** And the Growth inhibition zone ([8]; 800 μg on 5 mm disc)?
**A.** Its Growth inhibition zone is 11.3 ± 1.5.

**Q.** And the Growth inhibition zone ([9]; 200 μg on 5 mm disc)?
**A.** Its Growth inhibition zone is 7.3 ± 1.5.

**Q.** And the Growth inhibition zone ([9]; 400 μg on 5 mm disc)?
**A.** Its Growth inhibition zone is 9.7 ± 1.5.

**Q.** What about the Growth inhibition zone ([9]; 600 μg on 5 mm disc) of the same compound?
**A.** Its Growth inhibition zone is 9.7 ± 0.6.

**Q.** And the Growth inhibition zone ([9]; 800 μg on 5 mm disc)?
**A.** The Growth inhibition zone was 9.7 ± 1.5.

**Q.** What about the Growth inhibition zone ([10]; 200 μg on 5 mm disc) of the same compound?
**A.** The Growth inhibition zone was 6.0 ± 1.0.

**Q.** What about the Growth inhibition zone ([10]; 400 μg on 5 mm disc) of the same compound?
**A.** The Growth inhibition zone was 6.0 ± 1.0.

**Q.** What about the Growth inhibition zone ([10]; 600 μg on 5 mm disc) of the same compound?
**A.** The Growth inhibition zone was 6.0 ± 1.0.

**Q.** And the Growth inhibition zone ([10]; 800 μg on 5 mm disc)?
**A.** The Growth inhibition zone was 6.0 ± 1.0.

**Q.** What about the Growth inhibition zone ([11]; 200 μg on 5 mm disc) of the same compound?
**A.** Its Growth inhibition zone is 13.3 ± 1.4.

**Q.** And the Growth inhibition zone ([11]; 400 μg on 5 mm disc)?
**A.** The Growth inhibition zone was 13.0 ± 0.7.

**Q.** And the Growth inhibition zone ([11]; 600 μg on 5 mm disc)?
**A.** Its Growth inhibition zone is 15.0 ± 0.7.

**Q.** What about the Growth inhibition zone ([11]; 800 μg on 5 mm disc) of the same compound?
**A.** The Growth inhibition zone was 13.3 ± 0.7.

**Q.** What about the Growth inhibition zone ([12]; 200 μg on 5 mm disc) of the same compound?
**A.** The Growth inhibition zone was 12.0 ± 0.6.

**Q.** What about the Growth inhibition zone ([12]; 400 μg on 5 mm disc) of the same compound?
**A.** Its Growth inhibition zone is 14.3 ± 0.6.

**Q.** What about the Growth inhibition zone ([12]; 600 μg on 5 mm disc) of the same compound?
**A.** The Growth inhibition zone was 13.7 ± 1.5.

**Q.** What about the Growth inhibition zone ([12]; 800 μg on 5 mm disc) of the same compound?
**A.** Its Growth inhibition zone is 14.6 ± 0.6.

**Q.** What about the antibacterial activity ([13]; listed as Alkaline Copper Sulfate (OH)6) of the same compound?
**A.** The antibacterial activity was “antibacterial activity on all bacterial strains tested”.

**Q.** What about the antibacterial activity ([13]; listed as product of invention) of the same compound?
**A.** The antibacterial activity was “spectrum of antibacterial activity greater than the hydroxyphosphate copper compounds (II) and copper oxychloride (II)”.
